Legend:
Assay in all cases: KINOMEscan binding assay
TYRO3 = molecular target: T1, TYRO3 (Homo sapiens, UniProt Q06418); details: read-out: % Retention on Solid Support
T1 construct: purchased DiscoveRx KINOMEscan
Outline: (§1)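 Over 400 kinases were screened. i-CDK9 was applied at 1 and 10 µM. Occupancy was read by competition with an active site-directed ligand.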

STK39 = molecular target: T2, STK39 (Homo sapiens, UniProt Q9UEW8); details: read-out: % Retention on Solid Support
T2 construct: purchased DiscoveRx KINOMEscan
Outline: as §1

STK33 = molecular target: T3, STK33 (Homo sapiens, UniProt Q9BYT3); details: read-out: % Retention on Solid Support
T3 construct: purchased DiscoveRx KINOMEscan
Outline: as §1

NEK4 = molecular target: T4, NEK4 (Homo sapiens, UniProt P51957); details: 1 µM i-CDK9; read-out: % Retention on Solid Support
T4 construct: purchased DiscoveRx KINOMEscan
Outline: as §1

MARK1 = molecular target: T5, MARK1 (Homo sapiens, UniProt Q9P0L2); details: read-out: % Retention on Solid Support
T5 construct: purchased DiscoveRx KINOMEscan
T5 sequence (Q9P0L2 whole entry): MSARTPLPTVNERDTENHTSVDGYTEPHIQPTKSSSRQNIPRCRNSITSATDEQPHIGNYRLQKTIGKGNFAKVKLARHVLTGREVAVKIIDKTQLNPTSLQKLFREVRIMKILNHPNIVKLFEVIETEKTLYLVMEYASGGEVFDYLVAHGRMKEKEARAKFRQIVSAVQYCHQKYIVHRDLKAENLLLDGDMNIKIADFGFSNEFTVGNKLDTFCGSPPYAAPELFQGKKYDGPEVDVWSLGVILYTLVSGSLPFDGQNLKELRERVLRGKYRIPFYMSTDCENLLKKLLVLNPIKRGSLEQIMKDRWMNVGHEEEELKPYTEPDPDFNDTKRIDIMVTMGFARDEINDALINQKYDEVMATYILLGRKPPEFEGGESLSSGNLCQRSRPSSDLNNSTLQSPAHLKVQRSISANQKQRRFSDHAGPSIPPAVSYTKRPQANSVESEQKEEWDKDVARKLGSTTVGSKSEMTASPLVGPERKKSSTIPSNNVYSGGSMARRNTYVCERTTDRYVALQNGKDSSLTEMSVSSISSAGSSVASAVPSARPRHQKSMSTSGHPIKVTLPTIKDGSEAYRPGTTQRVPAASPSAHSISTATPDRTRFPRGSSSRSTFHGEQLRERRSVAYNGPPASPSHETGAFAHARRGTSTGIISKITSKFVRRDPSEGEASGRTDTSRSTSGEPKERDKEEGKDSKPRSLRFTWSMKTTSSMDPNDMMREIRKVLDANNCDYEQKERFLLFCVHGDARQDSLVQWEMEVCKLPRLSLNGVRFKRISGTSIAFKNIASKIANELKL
Outline: as §1

MYLK = molecular target: T6, MYLK (Homo sapiens, UniProt Q15746); details: read-out: % Retention on Solid Support
T6 construct: purchased DiscoveRx KINOMEscan
Outline: as §1

FAK = molecular target: T7, FAK (Homo sapiens, UniProt Q05397); details: read-out: % Retention on Solid Support
T7 construct: purchased DiscoveRx KINOMEscan
Outline: as §1

ARK5 = molecular target: T8, ARK5 (Homo sapiens, UniProt O60285)
T8 construct: purchased DiscoveRx KINOMEscan
T8 sequence (O60285 whole entry): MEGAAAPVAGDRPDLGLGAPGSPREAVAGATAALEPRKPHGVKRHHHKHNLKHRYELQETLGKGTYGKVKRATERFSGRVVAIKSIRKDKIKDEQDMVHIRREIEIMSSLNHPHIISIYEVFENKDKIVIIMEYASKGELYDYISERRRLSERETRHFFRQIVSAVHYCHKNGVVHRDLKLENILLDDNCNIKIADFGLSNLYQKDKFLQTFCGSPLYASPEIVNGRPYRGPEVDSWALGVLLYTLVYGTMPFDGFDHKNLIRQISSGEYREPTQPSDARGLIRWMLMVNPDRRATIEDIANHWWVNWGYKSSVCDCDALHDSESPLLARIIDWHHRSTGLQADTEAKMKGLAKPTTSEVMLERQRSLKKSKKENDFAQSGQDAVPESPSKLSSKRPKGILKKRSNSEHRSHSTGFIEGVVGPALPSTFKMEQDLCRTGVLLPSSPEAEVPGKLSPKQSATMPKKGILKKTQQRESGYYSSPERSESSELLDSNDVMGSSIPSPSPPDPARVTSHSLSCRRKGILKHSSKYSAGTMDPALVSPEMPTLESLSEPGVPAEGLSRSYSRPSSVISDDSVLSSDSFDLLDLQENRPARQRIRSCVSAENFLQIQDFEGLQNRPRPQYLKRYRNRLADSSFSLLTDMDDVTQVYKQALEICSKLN
Outline: as §1

MUSK = molecular target: T9, MUSK (Homo sapiens, UniProt O15146); details: read-out: % Retention on Solid Support
T9 construct: purchased DiscoveRx KINOMEscan
Outline: as §1

LTK = molecular target: T10, LTK (Homo sapiens, UniProt P29376); details: read-out: % Retention on Solid Support
T10 construct: purchased DiscoveRx KINOMEscan
T10 sequence (P29376 17-864): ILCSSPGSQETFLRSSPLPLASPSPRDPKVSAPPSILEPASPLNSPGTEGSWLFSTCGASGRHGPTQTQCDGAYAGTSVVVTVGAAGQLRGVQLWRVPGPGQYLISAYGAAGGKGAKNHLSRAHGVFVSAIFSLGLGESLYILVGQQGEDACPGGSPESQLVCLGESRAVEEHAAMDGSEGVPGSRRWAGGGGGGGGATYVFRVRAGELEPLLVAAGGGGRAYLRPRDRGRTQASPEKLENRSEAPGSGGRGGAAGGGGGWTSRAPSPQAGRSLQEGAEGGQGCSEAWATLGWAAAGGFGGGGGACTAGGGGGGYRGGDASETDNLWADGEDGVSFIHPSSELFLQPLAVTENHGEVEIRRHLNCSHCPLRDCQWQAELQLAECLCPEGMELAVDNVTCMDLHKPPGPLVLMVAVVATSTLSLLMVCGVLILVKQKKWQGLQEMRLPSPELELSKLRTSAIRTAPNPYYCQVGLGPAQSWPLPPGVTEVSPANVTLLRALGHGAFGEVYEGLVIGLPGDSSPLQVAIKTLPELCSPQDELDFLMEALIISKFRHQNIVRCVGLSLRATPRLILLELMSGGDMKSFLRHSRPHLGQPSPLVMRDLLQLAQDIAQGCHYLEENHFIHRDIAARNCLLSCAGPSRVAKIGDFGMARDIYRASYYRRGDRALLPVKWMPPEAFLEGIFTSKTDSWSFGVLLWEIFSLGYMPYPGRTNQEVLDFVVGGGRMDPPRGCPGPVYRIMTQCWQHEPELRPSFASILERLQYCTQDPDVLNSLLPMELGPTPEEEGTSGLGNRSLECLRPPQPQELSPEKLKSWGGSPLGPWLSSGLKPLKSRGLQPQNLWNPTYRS
Outline: as §1

PIK3CA(H1047L) = molecular target: T11, PIK3CA(H1047L) (Homo sapiens, UniProt P42336, H1047L); details: read-out: % Retention on Solid Support
T11 construct: purchased DiscoveRx KINOMEscan
Outline: as §1

[1] = molecular target: T12, JAK3(JH1domain-catalytic) (Homo sapiens, UniProt P52333); details: read-out: % Retention on Solid Support
T12 construct: JAK3(JH1domain-catalytic); purchased DiscoveRx KINOMEscan
Outline: as §1

[2] = molecular target: T13, TYK2(JH1domain-catalytic) (Homo sapiens, UniProt P29597)
T13 construct: TYK2(JH1domain-catalytic); purchased DiscoveRx KINOMEscan
T13 sequence (P29597 871-1187 limits assumed): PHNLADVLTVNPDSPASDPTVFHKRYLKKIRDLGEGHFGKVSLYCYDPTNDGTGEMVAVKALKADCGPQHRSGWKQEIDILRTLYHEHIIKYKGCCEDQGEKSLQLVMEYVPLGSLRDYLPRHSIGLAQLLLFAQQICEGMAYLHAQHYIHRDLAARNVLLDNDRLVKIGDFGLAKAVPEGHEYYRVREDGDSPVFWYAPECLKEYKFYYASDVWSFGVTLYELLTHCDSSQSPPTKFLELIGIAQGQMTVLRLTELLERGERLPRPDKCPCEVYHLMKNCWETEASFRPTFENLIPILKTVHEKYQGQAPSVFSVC
Outline: as §1

[3] = molecular target: T14, ABL1(F317I)-nonphosphorylated (Homo sapiens, UniProt P00519, F317I); details: read-out: % Retention on Solid Support
T14 construct: purchased DiscoveRx KINOMEscan
Outline: as §1

PIM1 = molecular target: T15, PIM1 (Homo sapiens, UniProt P11309); details: read-out: % Retention on Solid Support
T15 construct: purchased DiscoveRx KINOMEscan
Outline: as §1

CDK4-cyclinD3 = molecular target: T16, CDK4-cyclinD3 (Homo sapiens, UniProt P11802); details: 1 µM i-CDK9; read-out: % Retention on Solid Support
T16 construct: purchased DiscoveRx KINOMEscan
Outline: as §1

ACVR1B = molecular target: T17, ACVR1B (Homo sapiens, UniProt P36896); details: read-out: % Retention on Solid Support
T17 construct: purchased DiscoveRx KINOMEscan
T17 sequence (P36896 24-505): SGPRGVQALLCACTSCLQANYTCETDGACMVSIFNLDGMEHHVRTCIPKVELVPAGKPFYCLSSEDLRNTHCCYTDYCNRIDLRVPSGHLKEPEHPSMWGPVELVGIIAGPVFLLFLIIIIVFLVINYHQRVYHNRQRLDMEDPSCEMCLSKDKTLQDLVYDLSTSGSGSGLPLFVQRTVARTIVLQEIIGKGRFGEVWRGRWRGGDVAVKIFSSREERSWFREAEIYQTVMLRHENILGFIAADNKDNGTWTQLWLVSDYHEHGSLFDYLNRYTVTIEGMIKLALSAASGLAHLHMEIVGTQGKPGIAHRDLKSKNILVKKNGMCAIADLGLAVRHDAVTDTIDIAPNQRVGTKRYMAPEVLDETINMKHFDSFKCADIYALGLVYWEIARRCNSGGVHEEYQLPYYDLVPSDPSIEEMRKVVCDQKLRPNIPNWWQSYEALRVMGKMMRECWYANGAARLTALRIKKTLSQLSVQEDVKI
Outline: as §1

TAOK3 = molecular target: T18, TAOK3 (Homo sapiens, UniProt Q9H2K8); details: read-out: % Retention on Solid Support
T18 construct: purchased DiscoveRx KINOMEscan
T18 sequence (Q9H2K8 1-898): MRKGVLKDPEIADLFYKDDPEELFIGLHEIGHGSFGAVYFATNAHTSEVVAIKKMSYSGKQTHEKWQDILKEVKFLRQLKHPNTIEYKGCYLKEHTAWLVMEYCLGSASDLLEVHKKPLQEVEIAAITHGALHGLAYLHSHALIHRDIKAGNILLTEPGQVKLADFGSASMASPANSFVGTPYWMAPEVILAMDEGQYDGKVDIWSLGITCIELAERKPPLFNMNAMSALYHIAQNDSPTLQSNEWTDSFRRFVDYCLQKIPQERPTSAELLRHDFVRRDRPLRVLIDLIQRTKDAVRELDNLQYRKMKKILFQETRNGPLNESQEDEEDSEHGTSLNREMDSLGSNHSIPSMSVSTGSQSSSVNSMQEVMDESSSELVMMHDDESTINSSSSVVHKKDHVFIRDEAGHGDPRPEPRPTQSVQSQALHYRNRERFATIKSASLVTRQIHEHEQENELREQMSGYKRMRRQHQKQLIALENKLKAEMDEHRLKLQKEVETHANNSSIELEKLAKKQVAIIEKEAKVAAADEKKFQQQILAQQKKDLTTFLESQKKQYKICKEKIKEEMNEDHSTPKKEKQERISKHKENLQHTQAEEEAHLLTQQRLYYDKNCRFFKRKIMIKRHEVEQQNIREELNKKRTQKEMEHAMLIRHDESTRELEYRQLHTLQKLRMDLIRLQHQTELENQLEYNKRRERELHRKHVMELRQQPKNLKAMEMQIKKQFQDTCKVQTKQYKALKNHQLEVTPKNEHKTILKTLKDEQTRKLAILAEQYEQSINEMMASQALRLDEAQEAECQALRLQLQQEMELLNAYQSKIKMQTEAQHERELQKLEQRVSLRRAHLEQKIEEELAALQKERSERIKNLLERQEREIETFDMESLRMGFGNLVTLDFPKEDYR
Outline: as §1

TIE2 = molecular target: T19, TIE2 (Homo sapiens, UniProt Q02763); details: read-out: % Retention on Solid Support
T19 construct: purchased DiscoveRx KINOMEscan
T19 sequence (Q02763 23-1124): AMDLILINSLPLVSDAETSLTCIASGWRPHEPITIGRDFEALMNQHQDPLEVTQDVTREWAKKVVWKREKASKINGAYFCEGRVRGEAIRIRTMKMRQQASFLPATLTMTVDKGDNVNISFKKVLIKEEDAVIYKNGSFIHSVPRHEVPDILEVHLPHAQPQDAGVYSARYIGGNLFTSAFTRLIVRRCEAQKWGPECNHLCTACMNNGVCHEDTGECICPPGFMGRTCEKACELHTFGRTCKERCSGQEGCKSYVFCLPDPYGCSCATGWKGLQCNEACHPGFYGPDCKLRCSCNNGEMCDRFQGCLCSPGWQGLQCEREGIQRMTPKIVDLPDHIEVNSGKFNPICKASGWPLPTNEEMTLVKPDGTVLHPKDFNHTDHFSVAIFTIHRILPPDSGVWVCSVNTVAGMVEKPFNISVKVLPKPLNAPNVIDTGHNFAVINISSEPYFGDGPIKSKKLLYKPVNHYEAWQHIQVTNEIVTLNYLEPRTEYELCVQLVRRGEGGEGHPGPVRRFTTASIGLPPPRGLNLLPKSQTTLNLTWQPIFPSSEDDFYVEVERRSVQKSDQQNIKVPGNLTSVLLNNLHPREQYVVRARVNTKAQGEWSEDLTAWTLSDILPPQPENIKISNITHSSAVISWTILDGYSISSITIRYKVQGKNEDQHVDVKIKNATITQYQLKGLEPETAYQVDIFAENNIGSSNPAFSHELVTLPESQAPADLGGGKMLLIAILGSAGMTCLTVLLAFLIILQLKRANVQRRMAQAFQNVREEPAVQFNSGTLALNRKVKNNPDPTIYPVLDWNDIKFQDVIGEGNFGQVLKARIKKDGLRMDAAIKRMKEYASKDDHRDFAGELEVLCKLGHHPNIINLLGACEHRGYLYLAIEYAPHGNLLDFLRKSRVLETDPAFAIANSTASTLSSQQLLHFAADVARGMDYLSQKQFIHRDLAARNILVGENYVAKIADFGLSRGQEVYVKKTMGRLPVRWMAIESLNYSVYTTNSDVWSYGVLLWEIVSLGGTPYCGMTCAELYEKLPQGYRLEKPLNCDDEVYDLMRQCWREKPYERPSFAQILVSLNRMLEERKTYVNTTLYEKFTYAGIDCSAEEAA
Outline: as §1

T1 sequence (Q06418 41-890): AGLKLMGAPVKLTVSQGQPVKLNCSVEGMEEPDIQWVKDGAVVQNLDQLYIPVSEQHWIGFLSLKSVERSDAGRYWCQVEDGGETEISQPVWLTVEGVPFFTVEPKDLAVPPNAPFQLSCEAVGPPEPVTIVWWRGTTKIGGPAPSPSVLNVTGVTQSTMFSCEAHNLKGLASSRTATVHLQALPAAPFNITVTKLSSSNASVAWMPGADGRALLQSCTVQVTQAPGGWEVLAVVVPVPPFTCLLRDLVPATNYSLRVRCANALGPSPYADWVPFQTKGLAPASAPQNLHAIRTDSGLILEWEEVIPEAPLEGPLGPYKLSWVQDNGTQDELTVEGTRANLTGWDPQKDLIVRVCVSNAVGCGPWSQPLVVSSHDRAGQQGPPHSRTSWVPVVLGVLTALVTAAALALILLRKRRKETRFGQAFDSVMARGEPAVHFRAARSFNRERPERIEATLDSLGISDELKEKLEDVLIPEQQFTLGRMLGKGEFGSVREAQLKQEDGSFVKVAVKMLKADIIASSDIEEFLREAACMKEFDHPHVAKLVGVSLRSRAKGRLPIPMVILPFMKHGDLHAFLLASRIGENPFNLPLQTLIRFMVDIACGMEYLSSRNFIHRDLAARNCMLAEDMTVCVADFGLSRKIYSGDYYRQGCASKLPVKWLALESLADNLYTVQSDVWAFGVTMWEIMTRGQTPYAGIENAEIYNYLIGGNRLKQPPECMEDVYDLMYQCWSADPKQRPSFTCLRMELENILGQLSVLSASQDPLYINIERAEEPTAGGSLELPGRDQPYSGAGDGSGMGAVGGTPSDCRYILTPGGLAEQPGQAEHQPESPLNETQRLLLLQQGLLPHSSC

With `N[C@H]1CC[C@H](Nc2cc(-c3cccc(NCc4cccc(F)c4)n3)c(Cl)cn2)CC1` [i-CDK9, N2′-(trans-4-aminocyclohexyl)-5′-chloro-N6-(3-fluorobenzyl)-2,4′-bipyridine-2′,6-diamine] the remaining binding at 1 µM (TYRO3; 1 µM i-CDK9) was 71%, the remaining binding at 10 µM (TYRO3; 10 µM i-CDK9) was 100% and the remaining binding at 1 µM (STK39; 1 µM i-CDK9) was 100%. The remaining binding at 10 µM (STK39; 10 µM i-CDK9) was 77%, the remaining binding at 1 µM (STK33; 1 µM i-CDK9) was 88% and the remaining binding at 10 µM (STK33; 10 µM i-CDK9) was 100%. For the same compound, the remaining binding at 1 µM (NEK4) was 100%, the remaining binding at 1 µM (MARK1; 1 µM i-CDK9) was 99% and the remaining binding at 10 µM (MARK1; 10 µM i-CDK9) was 100%. It also gave a remaining binding at 1 µM (MYLK; 1 µM i-CDK9) of 100%, a remaining binding at 10 µM (MYLK; 10 µM i-CDK9) of 100% and a remaining binding at 1 µM (FAK; 1 µM i-CDK9) of 88%. The remaining binding at 10 µM (FAK; 10 µM i-CDK9) was 99%, the “% Retention on Solid Support” value (ARK5; 1 µM i-CDK9) was 72% and the “% Retention on Solid Support” value (ARK5; 10 µM i-CDK9) was 100%. The remaining binding at 1 µM (MUSK; 1 µM i-CDK9) was 88%, the remaining binding at 10 µM (MUSK; 10 µM i-CDK9) was 100% and the remaining binding at 1 µM (LTK; 1 µM i-CDK9) was 92%. For the same compound, the remaining binding at 10 µM (LTK; 10 µM i-CDK9) was 100%, the remaining binding at 1 µM (PIK3CA(H1047L); 1 µM i-CDK9) was 99% and the remaining binding at 10 µM (PIK3CA(H1047L); 10 µM i-CDK9) was 100%. For the same compound, the remaining binding at 1 µM ([1]; 1 µM i-CDK9) was 100%, the remaining binding at 10 µM ([1]; 10 µM i-CDK9) was 100% and the “% Retention on Solid Support” value ([2]; 1 µM i-CDK9) was 62%. For the same compound, the “% Retention on Solid Support” value ([2]; 10 µM i-CDK9) was 100%, the remaining binding at 1 µM ([3]; 1 µM i-CDK9) was 99% and the remaining binding at 10 µM ([3]; 10 µM i-CDK9) was 75%. The remaining binding at 1 µM (PIM1; 1 µM i-CDK9) was 100%, the remaining binding at 10 µM (PIM1; 10 µM i-CDK9) was 23% and the remaining binding at 1 µM (CDK4-cyclinD3) was 100%. The remaining binding at 1 µM (ACVR1B; 1 µM i-CDK9) was 69%, the remaining binding at 10 µM (ACVR1B; 10 µM i-CDK9) was 100% and the remaining binding at 1 µM (TAOK3; 1 µM i-CDK9) was 12%. It also gave a remaining binding at 10 µM (TAOK3; 10 µM i-CDK9) of 1.2%, a remaining binding at 1 µM (TIE2; 1 µM i-CDK9) of 82% and a remaining binding at 10 µM (TIE2; 10 µM i-CDK9) of 100%.

Reference: publication PMC4490784, “Compensatory induction of MYC expression by sustained CDK9 inhibition via a BRD4-dependent mechanism” (eLife, 2015)
